Data set [1] in a line: Aqueous solubility in buffer. It counts as physicochemical. To be noted: buffer of pH 6.5 (close to the pH of the intestine), free acid.
For a further data set, the system named is retroviral protease. To be noted: qualitative statement; compounds disclosed in WO 95/30670; cited from earlier work.

Molecules are shown by their SMILES.

In general, solubility refers to the concentration that dissolves in the medium under given conditions. A lower solubility goes with a poorly soluble substance. `CCC[C@@]1(CCc2ccccc2)CC(O)=C([C@H](CC)c2cccc(NS(=O)(=O)c3ccc(C(F)(F)F)cn3)c2)C(=O)O1` [compound of formula I] returned a solubility in data set [1] of around 1 µg/mL. The “effectiveness as an inhibitor of retroviral protease” value in the data set on retroviral protease was “especially effective”.

These data come from patent US6231887A, “Pharmaceutical composition for acidic lipophilic compounds in a form of a self-emulsifying formulation” (priority 1998, dated 2001).
